Laboratory results published in paper PMC9696794, “Synthesis and Antimicrobial Activity of Short Analogues of the Marine Antimicrobial Peptide Turgencin A: Effects of SAR Optimizations, Cys-Cys Cyclization and Lipopeptide Modifications” (International Journal of Molecular Sciences, 2022).
Values after ≈ are worked out from the molar mass of the structure shown. Where a SMILES comes first, the peptide text is derived from it. Bridges are numbered along the chain shown (N, C = ends). The star is where a group is joined. Lauroyl = CCCCCCCCCCCC(=O)*; Octanoyl = CCCCCCCC(=O)*

Experiments:
Rhodotorula sp. (Rh) = test: microbe, parasite or virus in culture; format: cell-based; settings: 48 h
Procedure, shortened: (§1)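 Overnight cultures in potato dextrose broth with 2% glucose at 25–30 °C were diluted to approx. 4 × 10^5 spores/mL and mixed 1:1 with two-fold peptide dilutions plated at 256 to 1 µg/mL. After 48 h at room temperature, OD600 was read. MIC was the lowest concentration giving OD below 10% of the growth control, in triplicate.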

[1] = system: C. albicans (Ca, ATCC 10231); test: microbe, parasite or virus in culture; format: cell-based, Candida albicans; settings: for Antimicrobial Activity (MIC) Fungi Ca: ATCC 10231, 48 h
Procedure, shortened: as §1

E. coli MC4100 (WT) = test: Outer membrane permeability assay (NPN uptake fluorescence); format: cell-based, Escherichia coli
Experimental: The outer membrane of Gram-negative bacteria acts as a barrier for many hydrophobic and larger hydrophilic substances (>600 Da). However, some peptides can sensitize the outer membrane and thus facilitate the entry of various hydrophobic molecules. To explore if the peptides affect the outer membrane of E. coli MC4100, C12-cTurg-1 and C8-cTurg-2 were tested for their ability to enable the entry of the hydrophobic fluorescent probe 1-N-phenylnapthylamine (NPN, MW of 219 Da) (Figure 5). […] Normally, the hydrophobic NPN is excluded by E. coli bacteria, but it can enter the bacteria once the integrity of the outer membrane is compromised. […] Thus, the observed effects indicate that the outer membrane passage of C8-cTurg-2 was a rate-limiting step that was most likely preventing the peptide from reaching and accumulating in the inner membrane.
The permeability of the E. coli outer membrane was analysed by measuring increased fluorescence as kinetics of 1-N-phenylnaphthylamine (NPN, Sigma-Aldrich) uptake following the protocol described by, with minor modifications. Briefly, a single colony of E. coli MC4100 (WT) was suspended in MH medium and incubated overnight at 37 °C with shaking (225 rpm). The culture was diluted in MH medium and adjusted to OD600 = 0.1 and incubated at 37 °C until it reached an OD600 of 0.5. The cells were centrifuged and washed twice with an assay buffer (5 mM HEPES, 5 mM glucose, pH 7.2) and resuspended in the same buffer to a final OD600 of 1.0. E. coli MC4100 cells were mixed with 20 µM NPN. The assay set up was the same as for the membrane integrity and viability assay, using black round-bottom 96-well microtiter plates (Nunc) containing 10 µL of 2-fold dilutions of peptides (500 to 31.2 µg/mL). A volume of 90 µL of cell suspension with NPN was added to each well by the automated injector of the Synergy H1 Hybrid Reader. The fluorescence was immediately measured (well by well) at an excitation wavelength of 350 nm and an emission wavelength of 420 nm every second for 3 min. The relative fluorescence was calculated by normalizing the values from each time point with the negative control (Milli-Q water). CHX was included as a positive control.

[2] = system: S. aureus (Sa, ATCC 9144); test: microbe, parasite or virus in culture; format: cell-based, Staphylococcus aureus; settings: for Antimicrobial Activity (MIC) Gram + Sa: ATCC 9144, 24 h
Procedure, shortened: (§2)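 Cultures grown in Mueller–Hinton broth were adjusted by OD600 to 2.5–3 × 10^4 CFU/mL and mixed with two-fold peptide dilutions from 256 to 1 µg/mL. Plates were incubated at 35 °C with OD595 monitored every hour for 24 h.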

[3] = system: B. subtilis (Bs, ATCC 23857); test: microbe, parasite or virus in culture; format: cell-based, Bacillus subtilis; settings: for Antimicrobial Activity (MIC) Gram + Bs: ATCC 23857, 24 h
Procedure, shortened: as §2

all bacterial strains = test: Antibacterial MIC assay, all bacterial strains together (range or geometric mean); format: cell-based; settings: for GM (geometric mean of the MIC values against all bacterial strains): Table 1, six bacterial strains; for GM of MIC Tot. bact.: Table S3, all bacterial test strains, MIC >256 set to 256
Procedure, shortened: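 Broth microdilution in Mueller–Hinton broth against B. subtilis, C. glutamicum, S. aureus, S. epidermidis RP62A, E. coli and P. aeruginosa; inoculum 2.5–3 × 10^4 CFU/mL, 35 °C, OD595 read hourly for 24 h. MIC: lowest peptide concentration giving OD below 10% of growth control; geometric mean across strains, triplicate.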

[4] = system: P. aeruginosa (Pa, ATCC 27853); test: microbe, parasite or virus in culture; format: cell-based, Pseudomonas aeruginosa; settings: for Antimicrobial Activity (MIC) Gram − Pa: ATCC 27853, 24 h
Procedure, shortened: as §2

A. pullulans (Ap) = test: microbe, parasite or virus in culture; format: cell-based, Aurobasidium pollulans; settings: 48 h
Procedure, shortened: as §1

[5] = system: C. glutamicum (Cg, ATCC 13032); test: microbe, parasite or virus in culture; format: cell-based, Corynebacterium glutamicum; settings: for Antimicrobial Activity (MIC) Gram + Cg: ATCC 13032, 24 h
Procedure, shortened: as §2

[6] = system: S. epidermidis RP62A (Se, ATCC 35984); test: microbe, parasite or virus in culture; format: cell-based, Staphylococcus epidermidis; settings: for Antimicrobial Activity (MIC) Gram + Se: ATCC 35984, 24 h
Procedure, shortened: as §2

Structure (SMILES) | Antimicrobial Activity (MIC) Fungi Rh (Rhodotorula sp. (Rh)) [µg/mL] | Antimicrobial Activity (MIC) Fungi Ca [1] [µg/mL] | effect on NPN fluorescence (outer membrane permeabilization) (E. coli MC4100 (WT); not told) | Antimicrobial Activity (MIC) Gram + Sa [2] [µg/mL] | Antimicrobial Activity (MIC) Gram + Bs [3] [µg/mL] | GM (geometric mean of the MIC values against all bacterial strains) (all bacterial strains) [µg/mL] | GM of MIC Tot. bact. (all bacterial strains) [µg/mL] | Antimicrobial Activity (MIC) Gram − Pa [4] [µg/mL] | Antimicrobial Activity (MIC) Fungi Ap (A. pullulans (Ap)) [µg/mL] | Antimicrobial Activity (MIC) Gram + Cg [5] [µg/mL] | Antimicrobial Activity (MIC) Gram + Se [6] [µg/mL] | also measured
[H]/N=C(\N/C(=N/[H])NCCCCCCNC(=N)NC(=N)Nc1ccc(Cl)cc1)Nc1ccc(Cl)cc1 [Chlorhexidine, reference compound] | – | – | – | – | – | – | – | – | – | – | – | MIC (Rhodotorula sp. (Rh); Rhodotorula sp., read-out: Antimicrobial Activity (MIC) Fungi Rh): 1 µg/mL; MIC ([1]; Candida albicans, ATCC10231, C. albicans ATCC 10231, 48 h, read-out: Antimicrobial Activity (MIC) Fungi Ca): 7.8 µg/mL; effect on NPN fluorescence (outer membrane permeabilization) (E. coli MC4100 (WT); E. coli MC4100, 20 µM NPN, 3 min): increase the NPN fluorescence in a concentration-dependent manner; MIC ([2]; Staphylococcus aureus, ATCC9144, S. aureus ATCC 9144, 24 h, read-out: Antimicrobial Activity (MIC) Gram + Sa): 1.6 µg/mL; MIC ([3]; Bacillus subtilis, ATCC23857, B. subtilis ATCC 23857, 24 h, read-out: Antimicrobial Activity (MIC) Gram + Bs): 1.6 µg/mL; MIC (all bacterial strains; read-out: GM (geometric mean of the MIC values against all bacterial strains)): 20 µg/mL (≈ 39.6 µM); MIC ([4]; Pseudomonas aeruginosa, ATCC27853, P. aeruginosa ATCC 27853, 24 h, read-out: Antimicrobial Activity (MIC) Gram − Pa): 6.3 µg/mL (≈ 12.5 µM); MIC (A. pullulans (Ap); Aureobasidium pullulans, A. pullulans, read-out: Antimicrobial Activity (MIC) Fungi Ap): 1 µg/mL; MIC ([5]; Corynebacterium glutamicum, ATCC13032, C. glutamicum ATCC 13032, 24 h, read-out: Antimicrobial Activity (MIC) Gram + Cg): 0.8 µg/mL; MIC ([6]; Staphylococcus epidermidis, ATCC35984, S. epidermidis RP62A ATCC 35984, 24 h, read-out: Antimicrobial Activity (MIC) Gram + Se): 1.6 µg/mL
CCCCCCCC(=O)N[C@H]1CSSC[C@@H](C(=O)N[C@@H](CCCCN)C(=O)N[C@@H](CC(C)C)C(N)=O)NC(=O)[C@H](CCCCN)NC(=O)[C@H](Cc2c[nH]c3ccccc23)NC(=O)CNC(=O)[C@H](Cc2c[nH]c3ccccc23)NC(=O)[C@H](Cc2c[nH]c3ccccc23)NC(=O)[C@H](CCCCN)NC(=O)[C@H](CCCCN)NC(=O)CNC1=O [Peptide C8-cTurg-2, C8- (CGKKWWGWKC)KL-NH2] (Octanoyl-CGKKWWGWKCKL-NH2; disulfide 1-10) | 4 | 32 | increase the NPN fluorescence in a concentration-dependent manner | 4 | 2 | 4 | 4 | 8 | 16 | 2 | 4 | –
CCCCCCCCCCCC(=O)N[C@H]1CSSC[C@@H](C(=O)N[C@@H](CCCCN)C(=O)N[C@@H](CC(C)C)C(N)=O)NC(=O)[C@H](CCCCN)NC(=O)[C@H](Cc2c[nH]c3ccccc23)NC(=O)CNC(=O)CNC(=O)[C@@H]2CCCN2C(=O)[C@H](CCCCN)NC(=O)[C@H](CCCCN)NC(=O)CNC1=O [Peptide C12-cTurg-1, C12 -(CGKKPGGWKC)KL-NH2] (Lauroyl-CGKKPGGWKCKL-NH2; disulfide 1-10) | 4 | 64 | increase the NPN fluorescence in a concentration-dependent manner | 4 | 2 | 4 | 4 | 16 | 32 | 2 | 4 | increase in NPN fluorescence (E. coli MC4100 (WT); E. coli MC4100, 25 to 50 µg/mL): almost a four-fold increase
